Columns and labels:
ERK5 = biological target: T1, ERK5 (Homo sapiens, UniProt Q13164); assay: ERK5 IMAP assay (fluorescence polarisation); format: biochemical; settings: average (e.g. geometric mean) where more than one data point; read-out: ERK5 IC50
T1 construct: made in house

[1] = system: HA-ERK5-ΔP493 (MEK5D-activated, MEF2D-Gal4/Gal4-Luc reporter) in HEK293T cells; assay: Truncated dual-luciferase reporter assay, HEK293T forward transfection; format: cell-based; settings: Homo sapiens, HEK-293T, average where more than one data point, read-out: Truncated ERK 5 Reporter Assay
Description: Truncated Dual-Luciferase Reporter Assay
HEK293T and HeLa Forward Transfection
Constitutively-active, EGFP-tagged MEK5 (EGFP-MEK5D; 0.5 μg/μl), an EGFP-tagged construct containing no MEK5D (EGFP-C3; 0.5 μg/μl), and HA-tagged ERK5 with C-terminal truncation (HA-ERK5-ΔP493; 0.51 μg/μl) were diluted separately in sterile distilled water. Plasmid DNA and Lipofectamine 2000 (Invitrogen) were separately diluted in Opti-MEM growth media (reduced serum medium, Invitrogen), and incubated at room temperature for 5 min. Plasmid DNA (Tube A) and Lipofectamine 2000 (Tube B) were then combined and incubated for 20 min at room temperature to complex. Cells were then transfected by addition of 16 μl of the respective transfection mixture: 3 wells with EGFP-C3-containing (control) and 21 wells with MEK5D-containing transfection mixture (final volume, 100 μl). Cells were subsequently incubated for 4 h at 37° prior to addition of potential ERK5-inhibitory compounds.
Addition of Compounds to ERK5-Transfected HEK293T or HeLa Cells
Potential ERK5-inhibitory compounds were prepared as a 2× solution by addition of 2 μl compound (or DMSO as control) to 1 ml standard culture medium. Compounds were tested in triplicate at a concentration range of 0.003 μM, 0.01 μM, 0.03 μM, 0.1 μM, 0.3 μM and 1 μM (or 0.03 μM, 0.1 μM, 0.3 μM, 1 μM, 3 μM and 10 μM for BIX02189) by addition of 100 μl 2× solution to 100 μl transfected cells (final DMSO, 0.1% v/v). Cells were incubated for 24 h at 37° C.
Cell Lysis and Luciferase Quantification
After 24 h incubation in the absence (control) or presence of potential inhibitor, the culture medium was aspirated and cells lysed in 20 μl 1× passive lysis buffer (Dual-Luciferase Reporter Assay System, Promega) for a minimum of 15 min with agitation. Lysates were further processed immediately or stored at −80° C. Cellular inhibition of ERK5 was quantified using the Dual-Luciferase Reporter Assay System (Promega). Luciferase assay buffer/Luciferase assay substrate and Stop and Glo assay buffer/Stop and Glo substrate were prepared according to the manufacturer's instructions. Luciferase reagent (50 μl/well) was added immediately before luminescence detection using a FLUOstar Omega plate reader (BMG Labtech). Stop and Glo reagent (50 μl/well) was subsequently added, and the Renilla luciferase signal (transfection efficiency control) quantified.
The ERK5-specific signalling activity was calculated by subtraction of the EGFP-C3 luciferase signal from the EGFP-MEK5D-induced luminescence. Luminescence in the absence of potential ERK5 inhibitor (DMSO control) was taken as 100% ERK5 activity. […] Unless stated otherwise, data are mean±standard deviation of three independent experiments.

[2] = system: ERK5 autophosphorylation in HeLa cells; assay: EGF-stimulated HeLa cell assay (ERK5 autophosphorylation, Western blot); format: cell-based; settings: Homo sapiens, average where more than one data point
Description: EGF-Stimulated HeLa Cell Assay
HeLa cells were serum starved overnight followed by treatment with ERK5 inhibitors for 1 hr. Cells were then stimulated with 100 ng/ml EGF for 10 or 15 min. The cells were harvested and lysed at 4° C. for 5-10 min in Laemmli buffer containing Halt protease and […] (Pierce). The lysates were boiled for 10 min at 100° C. Twenty microliters sample was run on 6% or 7.5% Tris-glycine gels and transferred to nitrocellulose. […] The IC50 was calculated from densitometry of top bands.

T1 sequence (Q13164 whole entry): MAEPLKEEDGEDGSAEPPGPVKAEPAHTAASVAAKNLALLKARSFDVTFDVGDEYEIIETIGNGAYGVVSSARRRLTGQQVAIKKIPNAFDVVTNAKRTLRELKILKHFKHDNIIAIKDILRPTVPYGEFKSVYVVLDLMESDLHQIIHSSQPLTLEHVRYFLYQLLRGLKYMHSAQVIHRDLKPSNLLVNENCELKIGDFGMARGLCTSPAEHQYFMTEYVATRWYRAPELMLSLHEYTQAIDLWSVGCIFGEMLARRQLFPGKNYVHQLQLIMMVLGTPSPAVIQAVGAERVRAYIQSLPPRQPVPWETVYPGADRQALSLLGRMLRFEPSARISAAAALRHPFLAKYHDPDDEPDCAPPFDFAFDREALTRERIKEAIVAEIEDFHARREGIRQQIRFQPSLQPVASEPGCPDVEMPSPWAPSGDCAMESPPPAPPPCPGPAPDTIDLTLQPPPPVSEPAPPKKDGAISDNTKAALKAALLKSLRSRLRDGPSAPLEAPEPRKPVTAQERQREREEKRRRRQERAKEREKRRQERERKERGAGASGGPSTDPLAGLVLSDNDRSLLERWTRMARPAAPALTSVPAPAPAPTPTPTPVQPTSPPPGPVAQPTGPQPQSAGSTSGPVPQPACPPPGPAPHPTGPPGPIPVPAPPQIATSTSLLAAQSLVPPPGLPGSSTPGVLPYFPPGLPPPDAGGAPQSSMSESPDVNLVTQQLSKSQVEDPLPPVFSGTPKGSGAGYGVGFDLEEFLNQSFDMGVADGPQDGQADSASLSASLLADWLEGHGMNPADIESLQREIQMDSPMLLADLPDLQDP

IC50 (ERK5) [nM] | IC50 [2] [nM] | Structure (SMILES) | IC50 [1] [nM]
12.2 |  | COc1ccc(Cl)c(C(=O)c2c[nH]c(C(=O)Nc3cnc(CC4CCNCC4)nc3)c2)c1F [Example 252, 4-(6-Chloro-2-fluoro-3-methoxybenzoyl)-N-(2-(piperidin-4-ylmethyl)pyrimidin-5-yl)-1H-pyrrole-2-carboxamide] | 627
11.1 |  | O=C(Nc1ccc(NCCN2CCCCC2)nc1)c1cc(C(=O)c2c(Cl)ccc(Cl)c2F)c[nH]1 [Example 264, 4-(3,6-Dichloro-2-fluorobenzoyl)-N-(6-((2-(piperidin-1-yl)ethyl)amino)pyridin-3-yl)-1H-pyrrole-2-carboxamide] | 142
15.7 | 700 | COc1ccc(Cl)c(C(=O)c2c[nH]c(C(=O)Nc3ccc(N4CCNCC4)nc3)c2)c1F [Example 69, 4-(6-Chloro-2-fluoro-3-methoxybenzoyl)-N-(6-(piperazin-1-yl)pyridin-3-yl)-1H-pyrrole-2-carboxamide] | 
10.2 |  | COc1ccc(Cl)c(C(=O)c2c[nH]c(C(=O)Nc3ccc(CC4CCN(C)CC4)nc3)c2)c1F [Example 236, 4-(6-Chloro-2-fluoro-3-methoxybenzoyl)-N-(6-((1-methylpiperidin-4-yl)methyl)pyridin-3-yl)-1H-pyrrole-2-carboxamide] | 96
13 |  | COc1ccc(Cl)c(C(=O)c2c[nH]c(C(=O)Nc3cnc(CN4CCN(C)CC4)nc3)c2)c1F [Example 245, 4-(6-Chloro-2-fluoro-3-methoxybenzoyl)-N-(2-((4-methylpiperazin-1-yl)methyl)pyrimidin-5-yl)-1H-pyrrole-2-carboxamide] | 461
16.6 |  | O=C(Nc1cnc(NCCN2CCCC2)nc1)c1cc(C(=O)c2c(Cl)ccc(Cl)c2F)c[nH]1 [Example 102, 4-(3,6-Dichloro-2-fluorobenzoyl)-N-(2-((2-(pyrrolidin-1-yl)ethyl)amino)pyrimidin-5-yl)-1H-pyrrole-2-carboxamide] | 85
7.1 |  | O=C(Nc1ccc(NCCN2CCCC2)nc1)c1cc(C(=O)c2c(Cl)ccc(Cl)c2F)c[nH]1 [Example 275, 4-(3,6-Dichloro-2-fluorobenzoyl)-N-(6-((2-(pyrrolidin-1-yl)ethyl)amino)pyridin-3-yl)-1H-pyrrole-2-carboxamide] | 107
6.7 |  | O=C(Nc1ccc(CN2CCC(O)CC2)nc1)c1cc(C(=O)c2c(Cl)ccc(Cl)c2F)c[nH]1 [Example 282] | 44
58.1 |  | O=C(Nc1ccc(NCCN2CCOCC2)nc1)c1cc(C(=O)c2c(Cl)ccc(Cl)c2F)c[nH]1 [Example 276, 4-(3,6-Dichloro-2-fluorobenzoyl)-N-(6-((2-morpholinoethyl)amino)pyridin-3-yl)-1H-pyrrole-2-carboxamide] | 125
15.8 |  | COc1ccc(Cl)c(C(=O)c2c[nH]c(C(=O)Nc3cnc(CN4CCNCC4)nc3)c2)c1F [Example 250, 4-(6-Chloro-2-fluoro-3-methoxybenzoyl)-N-(2-(piperazin-1-ylmethyl)pyrimidin-5-yl)-1H-pyrrole-2-carboxamide] | 573
15.3 |  | CN(C)CCNc1ncc(NC(=O)c2cc(C(=O)c3c(Cl)ccc(Cl)c3F)c[nH]2)cn1 [Example 99, 4-(3,6-Dichloro-2-fluorobenzoyl)-N-(2-((2-(dimethylamino)ethyl)amino)pyrimidin-5-yl)-1H-pyrrole-2-carboxamide] | 122
7.5 |  | O=C(Nc1cnc(CC2CCNCC2)nc1)c1cc(C(=O)c2c(Cl)ccc(Cl)c2F)c[nH]1 [Example 253, 4-(3,6-Dichloro-2-fluorobenzoyl)-N-(2-(piperidin-4-ylmethyl)pyrimidin-5-yl)-1H-pyrrole-2-carboxamide] | 239
18.5 |  | CCN(CC)CCNc1ccc(NC(=O)c2cc(C(=O)c3c(Cl)ccc(Cl)c3F)c[nH]2)cn1 [Example 262, 4-(3,6-Dichloro-2-fluorobenzoyl)-N-(6-((2-(diethylamino)ethyl)amino)pyridin-3-yl)-1H-pyrrole-2-carboxamide] | 149
31.7 | 140 | O=C(Nc1cnn(C2CNC2)c1)c1cc(C(=O)c2c(Cl)ccc(Cl)c2F)c[nH]1 [Example 54, N-(1-(Azetidin-3-yl)-1H-pyrazol-4-yl)-4-(3,6-dichloro-2-fluorobenzoyl)-1H-pyrrole-2-carboxamide] | 
22 |  | CN(C)Cc1ccc(NC(=O)c2cc(C(=O)c3c(Cl)ccc(Cl)c3F)c[nH]2)cn1 [Example 277, 4-(3,6-Dichloro-2-fluorobenzoyl)-N-(6-((dimethylamino)methyl)pyridin-3-yl)-1H-pyrrole-2-carboxamide] | 36
34 |  | COCCN(C)Cc1ccc(NC(=O)c2cc(C(=O)c3c(Cl)ccc(Cl)c3F)c[nH]2)cn1 [Example 278] | 40
8.5 |  | COc1ccc(Cl)c(C(=O)c2c[nH]c(C(=O)Nc3ccc(CN4CCN(C)CC4)nc3)c2)c1F [Example 246, 4-(6-Chloro-2-fluoro-3-methoxybenzoyl)-N-(6-((4-methylpiperazin-1-yl)methyl)pyridin-3-yl)-1H-pyrrole-2-carboxamide] | 69
5.1 | 290 | O=C(Nc1ccc(CC2CCNCC2)nc1)c1cc(C(=O)c2c(Cl)ccc(Cl)c2F)c[nH]1 [Example 111, 4-(3,6-Dichloro-2-fluorobenzoyl)-N-(6-(piperidin-4-ylmethyl)pyridin-3-yl)-1H-pyrrole-2-carboxamide] | 
36.8 |  | O=C(Nc1cnc(NCCN2CCOCC2)nc1)c1cc(C(=O)c2c(Cl)ccc(Cl)c2F)c[nH]1 [Example 103, 4-(3,6-Dichloro-2-fluorobenzoyl)-N-(2-((2-morpholinoethyl)amino)pyrimidin-5-yl)-1H-pyrrole-2-carboxamide] | 135
10.4 |  | O=C(Nc1cnc(NCCN2CCCCC2)nc1)c1cc(C(=O)c2c(Cl)ccc(Cl)c2F)c[nH]1 [Example 104, 4-(3,6-Dichloro-2-fluorobenzoyl)-N-(2-((2-(piperidin-1-yl)ethyl)amino)pyrimidin-5-yl)-1H-pyrrole-2-carboxamide] | 90
26.5 |  | O=C(Nc1ccc(CN2CCOCC2)nc1)c1cc(C(=O)c2c(Cl)ccc(Cl)c2F)c[nH]1 [Example 115, 4-(3,6-Dichloro-2-fluorobenzoyl)-N-(6-(morpholinomethyl)pyridin-3-yl)-1H-pyrrole-2-carboxamide] | 31
49.7 | 5100 | O=C(Nc1cnc(NC2CCN(C3CC3)CC2)nc1)c1cc(C(=O)c2c(Cl)ccc(Cl)c2F)c[nH]1 [Example 25, N-(2-((1-Cyclopropylpiperidin-4-yl)amino)pyrimidin-5-yl)-4-(3,6-dichloro-2-fluorobenzoyl)-1H-pyrrole-2-carboxamide] | 
9 |  | O=C(Nc1ccc(CN2CCCCC2)nc1)c1cc(C(=O)c2c(Cl)ccc(Cl)c2F)c[nH]1 [Example 284, 4-(3,6-Dichloro-2-fluorobenzoyl)-N-(6-(piperidin-1-ylmethyl)pyridin-3-yl)-1H-pyrrole-2-carboxamide] | 13

Structure (SMILES) | IC50 (ERK5) [nM] | IC50 [2] [nM] | IC50 [1] [nM]
CN(c1ccc(NC(=O)c2cc(C(=O)c3c(Cl)ccc(Cl)c3F)c[nH]2)cn1)C1CCNCC1 [Example 107, 4-(3,6-Dichloro-2-fluorobenzoyl)-N-(6-(methyl(piperidin-4-yl)amino)pyridin-3-yl)-1H-pyrrole-2-carboxamide] | 24.6 | 450 | 

From patent US10344017B2, “Pyrrolcarboxamide derivatives for the inhibition of ERK5” (CANCER RESEARCH TECHNOLOGY LIMITED, priority 2014, dated 2019)
